Reference: patent US20230263822A1, “MODULATION OF FACTOR 11 EXPRESSION” (Ionis Pharmaceuticals, Inc., priority 2008, published 2023)
Strand notation (5' to 3'): a small letter for the sugar, then the base; units joined by * are phosphorothioate-linked, units joined directly phosphodiester-linked; [ ] holds rarer units or linkages, { } end groups; capitals alone tell only the bases. e = 2'-O-(2-methoxyethyl) (MOE); [5mC] = 5-methylcytosine; d = 2'-deoxy (DNA)

How the values were obtained:
Format in all cases: cell-based
human Factor 11 mRNA [1] = assay: Antisense inhibition of human Factor 11 in HepG2 cells by microwalk gapmers, lipofectin, 75 nM (Example 3)
How it was run: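 HepG2 cells (10,000/well) were transfected via lipofectin with 75 nM 20-mer MOE gapmers (phosphorothioate, 5-methyl-C) for about 24 h. Factor 11 mRNA was measured by qRT-PCR, normalized to RIBOGREEN total RNA, and given as percent inhibition versus untreated cells.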

human Factor 11 mRNA [2] = assay: Dose-dependent inhibition of human Factor 11 in HepG2 cells, lipofectin 9.375-75 nM (Example 4); settings: for percent inhibition of Factor 11 at 9.375 nM / percent inhibition of Factor 11 at 18.75 nM / percent inhibition of Factor 11 at 37.5 nM / percent inhibition of Factor 11 at 75 nM: relative to untreated control cells
Method: (§1) Cells were plated at a density of 10,000 cells per well and transfected using lipofectin reagent with 9.375 nM, 18.75 nM, 37.5 nM and 75 nM concentrations of antisense oligonucleotide, as specified in Table 9. After a treatment period of approximately 16 hours, RNA was isolated from the cells and Factor 11 mRNA levels were measured by quantitative real-time PCR. Human Factor 11 primer probe set RTS 2966 was used to measure mRNA levels. Factor 11 mRNA levels were adjusted according to total RNA content, as measured by RIBOGREEN. Results are presented as percent inhibition of Factor 11, relative to untreated control cells.

human Factor 11 mRNA [3] = assay: Dose-dependent inhibition of human Factor 11 in HepG2 cells, electroporation 0.7-20 uM (Example 4); settings: for percent inhibition of Factor 11 at 0.7 μM / percent inhibition of Factor 11 at 2.2 μM / percent inhibition of Factor 11 at 6.7 μM / percent inhibition of Factor 11 at 20 μM: relative to untreated control cells
Method: as §1, with “The gapmers were also transfected via electroporation and their dose dependent inhibition of human Factor 11 mRNA was measured. Cells” for “Cells”, “20,000” for “10,000”, “via electroporation” for “using lipofectin reagent”, “0.7 μM, 2.2 μM, 6.7 μM,” for “9.375 nM, 18.75 nM, 37.5 nM”, “20 μM” for “75 nM”, “10.” for “9.”

[4] = HepG2, lipofectin, ~24 h, gapmers targeted to nucleobases 656 to 704 of SEQ ID NO: 1
[5] = HepG2 cells, lipofectin, gapmers targeted to nucleobases 1018 to 1042 of SEQ ID NO: 1
[6] = HepG2 cells, lipofectin, gapmers targeted to nucleobases 1275 to 1318 of SEQ ID NO: 1

Substance	% inhibition (human Factor 11 mRNA [1]; [4]) [%]	IC50 (human Factor 11 mRNA [2]) [nM]	percent inhibition of Factor 11 at 9.375 nM (human Factor 11 mRNA [2]) [%]	percent inhibition of Factor 11 at 18.75 nM (human Factor 11 mRNA [2]) [%]	percent inhibition of Factor 11 at 37.5 nM (human Factor 11 mRNA [2]) [%]	percent inhibition of Factor 11 at 75 nM (human Factor 11 mRNA [2]) [%]	IC50 (human Factor 11 mRNA [3]) [nM]	percent inhibition of Factor 11 at 0.7 μM (human Factor 11 mRNA [3]) [%]	percent inhibition of Factor 11 at 2.2 μM (human Factor 11 mRNA [3]) [%]	percent inhibition of Factor 11 at 6.7 μM (human Factor 11 mRNA [3]) [%]	percent inhibition of Factor 11 at 20 μM (human Factor 11 mRNA [3]) [%]	% inhibition (human Factor 11 mRNA [1]; [5]) [%]	% inhibition (human Factor 11 mRNA [1]; [6]) [%]
416896 (antisense eT*eT*eA*dT*dG*d[5mC]*d[5mC]*d[5mC]*dT*dT*d[5mC]*dA*dT*dG*dT*d[5mC]*dT*eA*eG*eG) [compound 416896]	95	27	22	39	57	81	3200	12	35	81	89	–	–
416908 (antisense eG*e[5mC]*eA*dA*d[5mC]*d[5mC]*dG*dG*dG*dA*dT*dG*dA*dT*dG*dA*dG*eT*eG*e[5mC]) [compound 416908]	–	16	36	57	67	76	2800	7	58	74	89	98	–
416922 (antisense eG*e[5mC]*eA*d[5mC]*dA*dG*dT*dT*dT*d[5mC]*dT*dG*dG*d[5mC]*dA*dG*dG*e[5mC]*e[5mC]*eT) [compound 416922]	–	36	14	25	49	75	1700	35	51	77	91	–	94
416923 (antisense eT*eG*e[5mC]*dA*d[5mC]*dA*dG*dT*dT*dT*d[5mC]*dT*dG*dG*d[5mC]*dA*dG*eG*e[5mC]*e[5mC]) [compound 416923]	–	23	36	47	60	67	4000	15	30	60	90	–	96
416924 (antisense eG*eT*eG*d[5mC]*dA*d[5mC]*dA*dG*dT*dT*dT*d[5mC]*dT*dG*dG*d[5mC]*dA*eG*eG*e[5mC]) [compound 416924]	–	36	25	38	56	59	4100	22	40	63	70	–	96
416926 (antisense eT*eG*eG*dT*dG*d[5mC]*dA*d[5mC]*dA*dG*dT*dT*dT*d[5mC]*dT*dG*dG*e[5mC]*eA*eG) [compound 416926]	–	22	31	43	63	82	600	47	71	91	94	–	93
416931 (antisense eG*eG*e[5mC]*dA*dT*dT*dG*dG*dT*dG*d[5mC]*dA*d[5mC]*dA*dG*dT*dT*eT*e[5mC]*eT) [compound 416931]	–	22	44	39	57	71	5100	7	24	60	82	–	96
416941 (antisense eG*eG*e[5mC]*dA*dG*d[5mC]*dG*dG*dA*d[5mC]*dG*dG*d[5mC]*dA*dT*dT*dG*eG*eT*eG) [compound 416941]	–	19	33	54	63	78	3000	16	38	79	89	–	95
416945 (antisense eA*eA*dT*dG*dT*d[5mC]*dT*dT*dT*dG*dT*dT*dG*d[5mC]*dA*eA*eG*e[5mC]*eG*e[5mC]) [compound 416945]	94	24	34	45	62	65	600	48	70	81	88	–	–
416969 (antisense eG*e[5mC]*d[5mC]*d[5mC]*dT*dT*d[5mC]*dA*dT*dG*dT*d[5mC]*dT*dA*dG*eG*eT*e[5mC]*e[5mC]*eA) [compound 416969]	80	28	17	39	61	76	2500	25	34	86	92	–	–
416972 (antisense eT*eA*dT*dG*d[5mC]*d[5mC]*d[5mC]*dT*dT*d[5mC]*dA*dT*dG*dT*d[5mC]*eT*eA*eG*eG*eT) [compound 416972]	90	26	32	40	60	69	4300	25	30	48	88	–	–
416973 (antisense eT*eT*dA*dT*dG*d[5mC]*d[5mC]*d[5mC]*dT*dT*d[5mC]*dA*dT*dG*dT*e[5mC]*eT*eA*eG*eG) [compound 416973]	92	3	60	75	85	87	2300	20	48	86	93	–	–
416984 (antisense e[5mC]*eA*dA*d[5mC]*d[5mC]*dG*dG*dG*dA*dT*dG*dA*dT*dG*dA*eG*eT*eG*e[5mC]*eA) [compound 416984]	–	22	26	50	62	81	1100	43	54	88	90	89	–
416985 (antisense eG*e[5mC]*dA*dA*d[5mC]*d[5mC]*dG*dG*dG*dA*dT*dG*dA*dT*dG*eA*eG*eT*eG*e[5mC]) [compound 416985]	–	49	17	30	47	57	5800	12	48	45	69	88	–
